Assay results: patent US8426174B2, “Method for the production of 2-butanol” (Butamax(TM) Advanced Biofuels LLC, priority 2007, dated 2013)
Read-outs that look alike come from different tables or passages of the source.

Legend:
E. coli strain MG1655 = system: E. coli strain MG1655
Protocol: For the stationary phase studies, E. coli strain MG1655 (ATCC #700926) was grown overnight in LB medium (Teknova, Half Moon Bay, Calif.) with shaking at 250 rpm at 42° C., 29° C. or 28° C. […] To these were added 10 μL of the overnight cultures and the tubes were immediately placed in shaking incubators at 42° C. or 28° C. or left on ice for 30 min. […] Then, 5 μL of the undiluted treated cultures were spotted on LB agar plates. Subsequent 10-fold serial dilutions of 10^−3, 10^−4, 10^−5 and 10^−6 of the exposed cultures were done by serial pipetting of 20 μL, starting with the 10^−2 dilution cultures, into 180 μL of LB medium in the microplate, using a multi-channel pipette. Prior to each transfer, the cultures were mixed by pipetting up and down six times. Each dilution (5 μL) was spotted onto an LB plate using a multi-channel pipette and allowed to soak into the plate. The plates were inverted and incubated overnight at 37° C. […] Survival of 0% was recorded when no colonies in the spots of the undiluted or any of the serial dilutions were observed.

E. coli (strain MG1655) = conditions: for % Survival at 30° C. / % Survival at 37° C. / % Survival at 0° C.: 1 h; for concentration at which E. coli cells were killed: one hour
Protocol: (§1) Using overnight cultures or cells from plates, 30 mL cultures of the microorganisms to be tested were started in the following culture media: • E. coli—Miller's LB medium (Teknova, Half Moon Bay, Calif.): • L. plantarum PN0512—Lactobacilli MRS Broth (BD Diagnostic Systems, Sparks, Md.). The E. coli and L. plantarum cultures were grown at 37° C. aerobically with shaking until the cultures were in log phase and the OD600 was between 0.6 and 0.8. A 50 μL aliquot of each culture was removed for a time zero sample. The remainder of the cultures was divided into six 5 mL portions and placed in six small incubation flasks or tubes. […] The flasks or tubes were incubated at a desired temperature, aerobically without shaking for 1 h. After the incubation with one of the butanols, 2 μL from each of the flasks (and in addition 2 μL of the time zero sample of the culture before exposure to one of the butanols) were pipetted into the “head” wells of a 96 well (8×12) microtiter plate, each containing 198 μL of LB medium to give a 10^−2 dilution of the culture. Subsequently, 10^−3, 10^−4, 10^−5, and 10^−6 serial dilutions of the cultures were prepared as follows. The 10^−3 dilution was prepared by pipetting 20 μL of the sample from the head well into the 180 μL LB medium in the next well using a multi-channel pipette. This procedure was repeated 3 more times on successive wells to prepare the 10^−4, 10^−5, and 10^−6 dilutions. After each liquid transfer, the solution in the well was mixed by pipetting it up and down 10 times with the multi-channel pipetor. A 5 μL aliquot of each dilution was spotted onto an LB plate using a multi-channel pipette starting with the 10^−6 dilution, then the 10^−5, and so on working from more to less dilute without a change of tips. The spots were allowed to soak into the agar by leaving the lid of the plate slightly open for 15 to 30 min in a sterile transfer hood. The plates were covered, inverted, and incubated overnight at 37° C. The following day, the number of colonies in the spots were counted from the different dilutions. The number of living cells/mL in each of the original culture solutions from which the 2 μL was withdrawn was calculated and compared to the number of cells in the control untreated culture to determine the % of the cells surviving.

L. plantarum PN0512 = conditions: for % Survival at 37° C. / % Survival at 23° C. / % Survival at 0° C. / concentration at which L. plantarum PN0512 cells were killed: one hour
Protocol: as §1

[1] = 1.0 % (w/v) 1-butanol, grown at 29° C.
[2] = 1.0 % (w/v) 1-butanol, grown at 42° C.
[3] = 1.5 % (w/v) 1-butanol, grown at 29° C.
[4] = 1.5 % (w/v) 1-butanol, grown at 42° C.
[5] = 2.0 % (w/v) 1-butanol, grown at 29° C.
[6] = 2.0 % (w/v) 1-butanol, grown at 42° C.
[7] = 3.0 % (w/v) 1-butanol, grown at 29° C.
[8] = 3.0 % (w/v) 1-butanol, grown at 42° C.
[9] = 4.0 % (w/v) 1-butanol, grown at 29° C.
[10] = 4.0 % (w/v) 1-butanol, grown at 42° C.
[11] = […] (w/v) 1-butanol, grown at 29° C.
[12] = […] (w/v) 1-butanol, grown at 42° C.

1-butanol
29%: % Survival at 37° C. (L. plantarum PN0512; 2 % v/v 1-butanol)
2 % v/v: concentration at which E. coli cells were killed (E. coli (strain MG1655); 37° C.)
0%: % survival after 30 min exposure at 42° C. (E. coli strain MG1655; [6]) | % survival after 30 min exposure at 42° C. (E. coli strain MG1655; [7]) | % survival after 30 min exposure at 42° C. (E. coli strain MG1655; [8]) | % survival after 30 min exposure at 42° C. (E. coli strain MG1655; [9]) | % survival after 30 min exposure at 42° C. (E. coli strain MG1655; [10]) | % survival after 30 min exposure at 0° C. (E. coli strain MG1655; 6.0 % (w/v) 1-butanol, grown at 42° C.) | % survival after 30 min exposure at 0° C. (E. coli strain MG1655; 7.0 % (w/v) 1-butanol, grown at 29° C.) | % survival after 30 min exposure at 0° C. (E. coli strain MG1655; 7.0 % (w/v) 1-butanol, grown at 42° C.) | % survival after 30 min exposure at 42° C. (E. coli strain MG1655; [11]) | % survival after 30 min exposure at 42° C. (E. coli strain MG1655; [12]) | % Survival at 37° C. (E. coli (strain MG1655); 2 % v/v 1-butanol) | % Survival at 30° C. (E. coli (strain MG1655); 3 % v/v 1-butanol) | % Survival at 37° C. (E. coli (strain MG1655); 3 % v/v 1-butanol) | % Survival at 37° C. (E. coli (strain MG1655); […] v/v 1-butanol) | % Survival at 37° C. (L. plantarum PN0512; 3 % v/v 1-butanol) | % Survival at 23° C. (L. plantarum PN0512; 4 % v/v 1-butanol) | % Survival at 0° C. (L. plantarum PN0512; 5 % v/v 1-butanol) | % Survival at 0° C. (L. plantarum PN0512; 5.5 % v/v 1-butanol)
0.1%: % survival after 30 min exposure at 42° C. (E. coli strain MG1655; [3]) | % survival after 30 min exposure at 42° C. (E. coli strain MG1655; [4]) | % survival after 30 min exposure at 42° C. (E. coli strain MG1655; [5])
58%: % Survival at 37° C. (L. plantarum PN0512; 1.5 % v/v 1-butanol)
3 % v/v: concentration at which E. coli cells were killed (E. coli (strain MG1655); 30° C.)
3.5 % v/v: concentration at which L. plantarum PN0512 cells were killed (L. plantarum PN0512; 23° C.)
0.001%: % survival after 30 min exposure at 0° C. (E. coli strain MG1655; 6.0 % (w/v) 1-butanol, grown at 29° C.)
0.0003%: % survival after 30 min exposure at 28° C. (E. coli strain MG1655; 4.0 % (w/v) 1-butanol, grown at 28° C.)
82%: % Survival at 23° C. (L. plantarum PN0512; 3 % v/v 1-butanol)
2.5 % v/v: concentration at which L. plantarum PN0512 cells were killed (L. plantarum PN0512; 37° C.)
0.0004%: % survival after 30 min exposure at 28° C. (E. coli strain MG1655; [10])
≤ 4.5 % v/v: concentration with no toxic effect on E. coli cells (E. coli (strain MG1655); 0° C., one hour treatment) | concentration with no toxic effect on L. plantarum PN0512 cells (L. plantarum PN0512; 0° C., one hour treatment)
20%: % Survival at 37° C. (E. coli (strain MG1655); 1.5 % v/v 1-butanol)
1%: % survival after 30 min exposure at 0° C. (E. coli strain MG1655; 5.0 % (w/v) 1-butanol, grown at 29° C.) | % survival after 30 min exposure at 0° C. (E. coli strain MG1655; 5.0 % (w/v) 1-butanol, grown at 42° C.)
100%: % survival after 30 min exposure at 28° C. (E. coli strain MG1655; 1.0 % (w/v) 1-butanol, grown at 28° C.) | % survival after 30 min exposure at 0° C. (E. coli strain MG1655; [1]) | % survival after 30 min exposure at 42° C. (E. coli strain MG1655; [1]) | % survival after 30 min exposure at 0° C. (E. coli strain MG1655; [2]) | % survival after 30 min exposure at 28° C. (E. coli strain MG1655; [2]) | % survival after 30 min exposure at 42° C. (E. coli strain MG1655; [2]) | % survival after 30 min exposure at 28° C. (E. coli strain MG1655; 1.5 % (w/v) 1-butanol, grown at 28° C.) | % survival after 30 min exposure at 0° C. (E. coli strain MG1655; [3]) | % survival after 30 min exposure at 0° C. (E. coli strain MG1655; [4]) | % survival after 30 min exposure at 28° C. (E. coli strain MG1655; [4]) | % survival after 30 min exposure at 28° C. (E. coli strain MG1655; 2.0 % (w/v) 1-butanol, grown at 28° C.) | % survival after 30 min exposure at 0° C. (E. coli strain MG1655; [5]) | % survival after 30 min exposure at 0° C. (E. coli strain MG1655; [6]) | % survival after 30 min exposure at 28° C. (E. coli strain MG1655; [6]) | % survival after 30 min exposure at 28° C. (E. coli strain MG1655; 3.0 % (w/v) 1-butanol, grown at 28° C.) | % survival after 30 min exposure at 0° C. (E. coli strain MG1655; [7]) | % survival after 30 min exposure at 0° C. (E. coli strain MG1655; [8]) | % survival after 30 min exposure at 28° C. (E. coli strain MG1655; [8]) | % survival after 30 min exposure at 0° C. (E. coli strain MG1655; [9]) | % survival after 30 min exposure at 0° C. (E. coli strain MG1655; [10]) | % survival after 30 min exposure at 0° C. (E. coli strain MG1655; [11]) | % survival after 30 min exposure at 0° C. (E. coli strain MG1655; [12]) | % Survival at 30° C. (E. coli (strain MG1655); 1 % v/v 1-butanol) | % Survival at 30° C. (E. coli (strain MG1655); 1.5 % v/v 1-butanol) | % Survival at 30° C. (E. coli (strain MG1655); 2 % v/v 1-butanol) | % Survival at 0° C. (E. coli (strain MG1655); 3 % v/v 1-butanol) | % Survival at 0° C. (E. coli (strain MG1655); 4 % v/v 1-butanol) | % Survival at 0° C. (E. coli (strain MG1655); […] v/v 1-butanol) | % Survival at 23° C. (L. plantarum PN0512; 2 % v/v 1-butanol) | % Survival at 0° C. (L. plantarum PN0512; 3 % v/v 1-butanol) | % Survival at 0° C. (L. plantarum PN0512; 4 % v/v 1-butanol) | % Survival at 0° C. (L. plantarum PN0512; […] v/v 1-butanol)
80%: % Survival at 37° C. (L. plantarum PN0512; 1 % v/v 1-butanol)
72%: % Survival at 37° C. (E. coli (strain MG1655); 1 % v/v 1-butanol)
